According to PubChem BioAssay AID1963852 (Molecular Pharmacology Branch, DTP, NCI, 2024):
Where “and” joins values, the source holds several entries; their conditions need not be identical. Equal entries are not always repeated.

Test system: 282377-053-R-J1-PDC complex spheroid viability
Test: Anticancer human tumor 282377-053-R-J1-PDC patient-derived colon adenocarcinoma cell line growth inhibition [POLQ]
Conditions: for viability, T/C: stronger effect = lower value
Procedure: Multicellular complex tumor spheroid response to Polymerase (POL) inhibitors (novobiocin, ART-558, RP6685) in combination with a variety of drugs and investigational agents in selected tumor cell lines
The POL inhibitors (novobiocin, ART-558, and RP6685) were evaluated both individually and in combination with standard of care and investigational anticancer small molecules within a complex spheroid model of solid tumors. . Complex spheroids include a stromal component modeled by human endothelial cells (HUVEC) and fibroblasts modeled by human mesenchymal stem cells (MSCs). The concentration ranges selected for each drug and investigational agent were based upon clinically achievable concentrations if the clinical Cmax of the agent was known.
Compounds. The drugs and investigational agents: novobiocin (NSC847541), ART-558 (NSC835418), RP-6685 (NSC848927), peposertib (NSC802822), ceralasertib (NSC780249), elimusertib (NSC800525), camonsertib (NSC841442), AZD-1390 (NSC803789), olaparib (NSC753686), talazoparib (NSC767125), rucaparib (NSC756644), sotorasib (NSC818433), MRTX-1133 (NSC836407), SN-38 (NSC673596), topotecan (NSC609699), epotoside (NSC141540), doxorubicin (NSC123127), gemcitabine (NSC613327), 5-fluorouracil (NSC19893), paclitaxel (NSC125973), vemurafenib (NSC761431), MSA-2 (NSC828583), SN-011 (NSC837082), adavosertib (NSC754352), prexasertib (NSC758257), carboplatin (NSC241240) and oxaliplatin (NSC266046), were obtained from the National Cancer Institute (NCI) Developmental Therapeutics Program Chemical Repository (21). The FDA-approved anticancer drug set is available from the Developmental Therapeutics Program at https://dtp.cancer.gov/organization/dscb/obtaining/. […] The stock solutions were prepared in dimethyl sulfoxide (DMSO, Sigma-Aldrich, St. Louis, MO, cat. D2650), except for the platinum compounds which were prepared in saline (Quality Biological, Gaithersburg, MD, cat. 114-055-101), at 800-fold the tested concentration and stored at -70 degrees C prior to their use. All drugs and investigational agents were tested over a range starting from a high concentration at or near the clinical Cmax and decreasing in half-log increments. If the clinical Cmax for an agent had not been determined, the highest concentration tested was 10 microM, except for SN-38, which was tested at a high concentration of 1 microM.
Cell Culture. All cells were maintained in an incubator at 37 degrees C and 5% CO2 with 95% humidity. The PDC lines were cultured according to standard operating procedures established by the NCI PDMR (https://pdmr.cancer.gov). Table 3 of the manuscript, lists the cell lines along with the number of the three cell types plated to form the mct-spheroids and media for tumor cell growth. After thawing, all PDC lines, except 997537-175-T-J1-PDC and 415267-285-R-J2-PDC, were cultured in Matrigel-coated flasks prepared with a working solution of 1X Ham's F-12 nutrient mix, without supplementation (Thermo Fisher Scientific, cat. 11765054), 100 U/mL penicillin-streptomycin (Thermo Fisher Scientific, cat. 15140122), and 2.5% Matrigel (Corning Inc., Corning, NY, cat. 354248) for the first three passages. The two PDC lines 997537-175-T-J1-PDC and 415267-285-R-J2-PDC were cultured on uncoated flasks. The 857933-349-R-J2-PDC line was cultured in 6C/Colon 1B media containing advanced DMEM/F-12 (Thermo Fisher Scientific, cat. 12634028), 10 mM HEPES (Thermo Fisher Scientific, cat. 15630080), 1X GlutaMAX supplement (Thermo Fisher Scientific, cat. 35050061), 0.1 mg/mL primocin (InvivoGen, San Diego, CA, cat. ant-pm-2), 10% defined fetal bovine serum, heat inactivated (HyClone Laboratories Inc., Logan, UT, cat. SH30070.03HI), 50% L-WRN conditioned media (ATCC, cat. CRL-3276), 1.25 mM N-Acetyl-L-cysteine (Sigma-Aldrich, cat. A9165), 10 mM nicotinamide (Sigma-Aldrich, cat. N0636), 1X B-27 supplement (Thermo Fisher Scientific, cat. 17504044), 1X N-2 supplement (Thermo Fisher Scientific, cat. […]
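Further: spheroids exposed to compounds for seven days.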
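Wherever viability, T/C is given: 100% = DMSO vehicle control viability.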

Which results are given for `Cc1cccc(N(C)C(=O)C2C(O)CCN2c2nc(C)cc(C(F)(F)F)c2C#N)c1` (configuration not stated)?
viability, T/C (compound 0.1 µM): 105% [middle of 13 runs]; IC50 (compound alone, run of 10/31/2023): > 10000 nM; IC50 (compound alone, run of 11/06/2023): > 10000 nM

With `O=C(Nc1ccc(O)c(NS(=O)(=O)c2ccc(F)cc2)c1)c1ccc(-c2ccccc2)cc1` as the molecule, how does the viability, T/C (compound 0.0316 µM) read?
Its viability, T/C is 110% and 91.2% and 91.8%.

And the viability, T/C (compound 0.1 µM)?
The viability, T/C was 98.8% and 86.6% and 102%.

And the viability, T/C (compound 0.316 µM)?
Its viability, T/C is 108% and 92.9% and 112%.

And the viability, T/C (compound 1 µM)?
Its viability, T/C is 113% and 95.5% and 102%.

And the viability, T/C (compound 3.16 µM)?
The viability, T/C was 116% and 112% and 121%.

What about the viability, T/C (compound 10 µM) of the same molecule?
Its viability, T/C is 116% (2×) and 109%.

And the IC50 (curve of compound)?
Its IC50 is greater than 10000 nM.

Which results are given for `CC(=O)O[C@H]1C(=O)[C@@]2(C)[C@H]([C@H](OC(=O)c3ccccc3)[C@]3(O)C[C@H](OC(=O)[C@H](O)[C@@H](NC(=O)c4ccccc4)c4ccccc4)C(C)=C1C3(C)C)[C@]1(OC(C)=O)CO[C@@H]1C[C@@H]2O` + COC1C(OC(N)=O)C(O)C(Oc2ccc3c(O)c(NC(=O)c4ccc(O)c(CC=C(C)C)c4)c(=O)oc3c2C)OC1(C)C?
IC50 (curve of first compound, second compound 0.0316 µM): < 9.49 nM; IC50 (curve of first compound, second compound 0.1 µM): 10.4 nM; IC50 (curve of first compound, second compound 0.316 µM): 11.5 nM; IC50 (curve of first compound, second compound 1 µM): 11.4 nM; IC50 (curve of first compound, second compound 3.16 µM): 12.6 nM; IC50 (curve of first compound, second compound 10 µM): 13.1 nM; viability, T/C (second compound 0.0316 µM, first compound 0.00949 µM): 39.3%; viability, T/C (second compound 0.0316 µM, first compound 0.03 µM): 18.9%; viability, T/C (second compound 0.0316 µM, first compound 0.0949 µM): 19.9%; viability, T/C (second compound 0.0316 µM, first compound 0.3 µM): 20.6%; viability, T/C (second compound 0.0316 µM, first compound 0.949 µM): 19.5%; viability, T/C (second compound 0.0316 µM, first compound 3 µM): 24.1%; viability, T/C (second compound 0.1 µM, first compound 0.00949 µM): 52.5%; viability, T/C (second compound 0.1 µM, first compound 0.03 µM): 21.9%; viability, T/C (second compound 0.1 µM, first compound 0.0949 µM): 20.9%; viability, T/C (second compound 0.1 µM, first compound 0.3 µM): 18.1%; viability, T/C (second compound 0.1 µM, first compound 0.949 µM): 22.1%; viability, T/C (second compound 0.1 µM, first compound 3 µM): 25.3%; viability, T/C (second compound 0.316 µM, first compound 0.00949 µM): 55.7%; viability, T/C (second compound 0.316 µM, first compound 0.03 µM): 20.8%; viability, T/C (second compound 0.316 µM, first compound 0.0949 µM): 19.9%; viability, T/C (second compound 0.316 µM, first compound 0.3 µM): 20.7%; viability, T/C (second compound 0.316 µM, first compound 0.949 µM): 22.9%; viability, T/C (second compound 0.316 µM, first compound 3 µM): 20.6%; viability, T/C (second compound 1 µM, first compound 0.00949 µM): 55.6%; viability, T/C (second compound 1 µM, first compound 0.03 µM): 20.8%; viability, T/C (second compound 1 µM, first compound 0.0949 µM): 16.8%; viability, T/C (second compound 1 µM, first compound 0.3 µM): 17.1%; viability, T/C (second compound 1 µM, first compound 0.949 µM): 22.2%; viability, T/C (second compound 1 µM, first compound 3 µM): 27.9%; viability, T/C (second compound 3.16 µM, first compound 0.00949 µM): 58.5%; viability, T/C (second compound 3.16 µM, first compound 0.03 µM): 23.8%; viability, T/C (second compound 3.16 µM, first compound 0.0949 µM): 15.8%; viability, T/C (second compound 3.16 µM, first compound 0.3 µM): 18.2%; viability, T/C (second compound 3.16 µM, first compound 0.949 µM): 23.1%; viability, T/C (second compound 3.16 µM, first compound 3 µM): 29.4%; viability, T/C (second compound 10 µM, first compound 0.00949 µM): 61.4%; viability, T/C (second compound 10 µM, first compound 0.03 µM): 20.9%; viability, T/C (second compound 10 µM, first compound 0.0949 µM): 16.9%; viability, T/C (second compound 10 µM, first compound 0.3 µM): 20.7%; viability, T/C (second compound 10 µM, first compound 0.949 µM): 24.5%; viability, T/C (second compound 10 µM, first compound 3 µM): 20.2%
